According to patent US20260224688A1, “HELPER LIPIDS FOR NUCLEIC ACID DELIVERY” (SANOFI PASTEUR INC., priority 2023, published 2026):
Where “and” joins values, the source holds several entries; their conditions need not be identical. Identical values can stand only once.

Tests used:
hEPO [1] = test: IV EPO expression of LNPs (tail vein injection); format: in vivo, female BALB/cJ mice; conditions: cationic lipid CL-0137, helper lipid 30 mol %; 0.017 μg EPO mRNA tail vein; 6 hours; DOPE = 1
Summary of the method: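 Female BALB/cJ mice (6-8 weeks) received a single tail-vein injection of 0.017 μg hEPO mRNA in LNPs (cationic lipid CL-0137/helper lipid/cholesterol/DMG-PEG-2K, 40:30:28.5:1.5 mol %). Serum hEPO was measured by ELISA on blood taken 6 h post-dose.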

hEPO [2] = test: IM EPO expression of LNPs containing phosphatidylcholine helper lipids; format: in vivo, female BALB/cJ mice; conditions: PC/CL-C formulations, helper lipid 13.5 mol %, DOPE = 1
Procedure: EPO expression studies were conducted with female BALB/cJ mice 6-8 weeks of age. Mice were dosed with […] EPO mRNA in 30 μL of LNPs by a single intramuscular (IM) injection into the gastrocnemius leg muscle. Blood samples were taken 6 and 24 hours post injection and hEPO levels were measured in the blood serum of the mice using an ELISA assay according to the manufacture's protocol. WO2022/099003 A1 also describes an in vivo assay for intramuscular administration (e.g. on page 46, paragraph [00206]).
Lipid nanoparticles were formulated containing the four lipid components shown below, complexed with a hEPO messenger RNA. • Cationic lipid CL-C, 40 mol % • Helper lipid, 13.5 mol % • Cholesterol, 44.8 mol % • DMG-PEG-2K (1,2-dimyristoyl-rac-glycero-3-methoxypolyethyleneglycol), 1.67 mol %
EPO expression studies were performed as described above in Example 3.

hEPO [3] = test: IV delivery using phosphatidylcholine helper lipids (EPO expression); format: in vivo, female BALB/cJ mice; conditions: cationic lipid CL-0137, helper lipid 13.5 mol %; 0.017 μg EPO mRNA tail vein; 6 hours; DOPE = 1
Procedure: Lipid nanoparticles were formulated containing the four lipid components shown below, complexed with a hEPO messenger RNA. • Cationic lipid CL-0137, 40 mol % • Helper lipid, 13.5 mol % • Cholesterol, 44.8 mol % • DMG-PEG-2K (1,2-dimyristoyl-rac-glycero-3-methoxypolyethyleneglycol), 1.67 mol %
EPO expression studies were conducted with female BALB/cJ mice 6-8 weeks of age. Mice were dosed with 0.017 μg EPO mRNA LNPs in a volume of 5 ul by a single tail vein injection. Blood samples were taken 6 hours post injection and hEPO levels were measured in the blood serum of the mice using an ELISA assay according to the manufacture's protocol.

[4] = Dynamic light scattering of lipid nanoparticles (size, PDI); format: physicochemical; conditions: LNP with cationic lipid CL-A
Summary of the method: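 LNPs of cationic lipid:DMG-PEG2000:cholesterol:helper lipid at 40:1.5:30:28.5 molar ratio, made by Process A. Diluted in 10% trehalose (about 0.1 mg/ml mRNA) and sized by DLS at 173° backscatter with a 633-nm laser, giving size and PDI.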

hEPO [5] = test: IM EPO expression of LNPs containing new helper lipids (hEPO in serum by ELISA); format: in vivo, female BALB/cJ mice; conditions: for 6-h EPO / 24-h EPO: single IM injection; for 24-h EPO: serum 24 hours post injection
Summary of the method: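 Female BALB/cJ mice aged 6-8 weeks received one intramuscular gastrocnemius injection of […] hEPO mRNA in 30 μL LNPs. The LNPs contained cationic lipid, phospholipid helper, cholesterol and DMG-PEG-2K at 40:30:28.5:1.5 mol %. Serum hEPO was measured by ELISA at 6 and 24 h.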

[6] = mRNA encapsulation efficiency of lipid nanoparticles; format: physicochemical; conditions: LNP with cationic lipid CL-A
Summary of the method: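 Encapsulation by RiboGreen assay run with and without 0.1% Triton-X 100. LNPs made by ethanolic lipid mixing with acidic aqueous mRNA, molar ratio 40:1.5:30:28.5 (cationic lipid:DMG-PEG2000:cholesterol:helper lipid), ultrafiltered/diafiltered, stored at −80° C. Size/PdI by dynamic light scattering after dilution in 10% trehalose to about 0.1 mg/ml mRNA.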

Row | Structure (SMILES) | Normalized Mean EPO expression (hEPO [2]) | Normalized mean IV EPO expression using PC LNPs (hEPO [3]) | further results
1 | CCCCCCCCC(CCCCCCCC)OC(=O)CCCCCCC(=O)OC[C@H](COP(=O)([O-])OCC[N+](C)(C)C)OC(=O)CCCCCCC(=O)OC(CCCCCCCC)CCCCCCCC [Compound 41, (R)-2,3-Bis((8-(heptadecan-9-yloxy)-8-oxooctanoyl)oxy)propyl (2-(trimethylammonio)ethyl) phosphate] | 1.3 | – | Normalized Mean IV EPO expression (hEPO [1]): 1.7
2 | CCCCCCCCC(CCCCCCCC)OC(=O)CCCCCCC(=O)OC[C@@H](COP(=O)([O-])OCC[N+](C)(C)C)OC(=O)CCCCCCC(=O)OC(CCCCCCCC)CCCCCCCC [Compound 42, (S)-2,3-Bis((8-(heptadecan-9-yloxy)-8-oxooctanoyl)oxy)propyl (2-(trimethylammonio)ethyl) phosphate] | 1.1 | 1.16 | –
3 | CCCCCCCCC(CCCCCCCC)OC(=O)CCCCCCCCC(=O)O[C@@H](COC(=O)CCCCCCC(=O)OC(CCCCCCCC)CCCCCCCC)COP(=O)(O)OCC[N+](C)(C)C [Compound 44, (S)-2-((10-(Heptadecan-9-yloxy)-10-oxodecanoyl)oxy)-3-((8-(heptadecan-9-yloxy)-8-oxooctanoyl)oxy)propyl (2-(trimethylammonio)ethyl) phosphate] | 1 | 1.32 | –
4 | CCCCCCCCC(CCCCCCCC)OC(=O)CCCCCCCC(=O)O[C@@H](COC(=O)CCCCCCC(=O)OC(CCCCCCCC)CCCCCCCC)COP(=O)(O)OCC[N+](C)(C)C [Compound 46, (S)-3-((8-(Heptadecan-9-yloxy)-8-oxooctanoyl)oxy)-2-((9-(heptadecan-9-yloxy)-9-oxononanoyl)oxy)propyl (2-(trimethylammonio)ethyl) phosphate] | 1.1 | 1.34 | –
5 | CCCCCCCCC(CCCCCCCC)OC(=O)CCCCCCC(=O)O[C@@H](COC(=O)CCCCC(=O)OC(CCCCCCCC)CCCCCCCC)COP(=O)(O)OCC[N+](C)(C)C [Compound 48, (S)-3-((6-(Heptadecan-9-yloxy)-6-oxohexanoyl)oxy)-2-((8-(heptadecan-9-yloxy)-8-oxooctanoyl)oxy)propyl (2-(trimethylammonio)ethyl) phosphate] | 1.1 | 1.08 | –
6 | CCCCCCCCC(CCCCCCCC)OC(=O)CCCCCCCC(=O)OC[C@@H](COP(=O)(O)OCC[N+](C)(C)C)OC(=O)CCCCCCC(=O)OC(CCCCCCCC)CCCCCCCC [Compound 50, (S)-2-((8-(Heptadecan-9-yloxy)-8-oxooctanoyl)oxy)-3-((9-(heptadecan-9-yloxy)-9-oxononanoyl)oxy)propyl (2-(trimethylammonio)ethyl) phosphate] | 1 | 1.6 | –
7 | CCCCCCCCC(CCCCCCCC)OC(=O)CCCCCCCCC(=O)OC[C@@H](COP(=O)(O)OCC[N+](C)(C)C)OC(=O)CCCCCCC(=O)OC(CCCCCCCC)CCCCCCCC [Compound 52, (S)-3-((10-(Heptadecan-9-yloxy)-10-oxodecanoyl)oxy)-2-((8-(heptadecan-9-yloxy)-8-oxooctanoyl)oxy)propyl (2-(trimethylammonio)ethyl) phosphate] | 1 | 1.53 | –
8 | CCCCCCCCC(CCCCCCCC)C(=O)OCCCCCC(=O)OC[C@@H](COP(=O)(O)OCC[N+](C)(C)C)OC(=O)CCCCCOC(=O)C(CCCCCCCC)CCCCCCCC [Compound 54, (S)-2,3-Bis((6-((2-octyldecanoyl)oxy)hexanoyl)oxy)propyl (2-(trimethylammonio)ethyl) phosphate] | 0.5 | 0.97 | –
9 | CCCCCCCCCCCCCCCC(=O)OC[C@@H](COP(=O)(O)OCC[N+](C)(C)C)OC(=O)CCCCCCC(=O)OC(CCCCCCCC)CCCCCCCC [Compound 56, (S)-2-((8-(Heptadecan-9-yloxy)-8-oxooctanoyl)oxy)-3-(palmitoyloxy)propyl (2-(trimethylammonio)ethyl) phosphate] | 1 | 1.52 | –
10 | CCCCCCCCCCCCCCCC(=O)OC[C@H](COP(=O)(O)OCC[N+](C)(C)C)OC(=O)CCCCCCC(=O)OC(CCCCCCCC)CCCCCCCC [Compound 57, (R)-2-((8-(Heptadecan-9-yloxy)-8-oxooctanoyl)oxy)-3-(palmitoyloxy)propyl (2-(trimethylammonio)ethyl) phosphate] | 0.9 | – | –
11 | CCCCCCCC/C=C\CCCCCCCC(=O)OC[C@H](COP(=O)(O)OCCN)OC(=O)CCCCCCC/C=C\CCCCCCCC [DOPE, dioleoylphosphatidylethanolamine, reference compound] | 1 | 1 | Polydispersity Index (PDI) [4]: 0.06 and 0.100; Size ([4]; hEPO mRNA, 40:30:28.5:1.5): 129 nm and 119 nm; 6-h EPO (hEPO [5]; CL-A LNP, 0.1 μg EPO mRNA in 30 μL, serum 6 hours post injection): 26.23 ng/mL; 24-h EPO (hEPO [5]; CL-A LNP): 19.128 ng/mL; 6-h EPO (hEPO [5]; CL-B LNP, serum 6 hours post injection): 19.62 ng/mL; 24-h EPO (hEPO [5]; CL-B LNP): 15.03 ng/mL; 6-h EPO (hEPO [5]; CL-C LNP): 16.38 ng/mL; 6-h EPO (hEPO [5]; CL-C LNP, (6-h)): 20.96 ng/mL; Normalized Mean EPO expression (hEPO [5]; helper lipid CL-C formulations, IM, DOPE = 1): 1; Normalized Mean IV EPO expression (hEPO [1]): 1; Encapsulation efficiency (EE) [6]: 91%
12 | CCCCCCCCCCCCCCCCCC(=O)OC[C@H](COP(=O)([O-])OCC[N+](C)(C)C)OC(=O)CCCCCCCCCCCCCCCCC [DSPC, distearoylphosphatidylcholine, reference compound] | – | 0.89 | –
